The test system of series [1] is patients with osteoarthritis of the knee. Description: Double blind, randomized study in osteoarthritis of the knee: adherence and adverse events. The class given is in vivo, human. The conditions noted are these: 90-day trial, 50 patients randomized to two groups. On the procedure:
(§1) After giving their written informed consent, patients were assessed at baseline for demographic and clinical characteristics. They were then randomized to receive either glucosamine sulphate or a combination of glucosamine sulphate, Boswellia serrata and curcuminoids twice-daily in a double blind manner for a total period of 90 days. Both the medications were identical in appearance and taste. Treatment of associated disease was allowed at the discretion of the physician. Patients were assessed at baseline and at the end of 90 days. Four separate 10 cm visual analogue scales (VAS) were used to measure pain in affected knee at rest, on movement and the patients overall assessment of swelling and morning stiffness. VAS was scored from 0 to 10, where 0 indicates no pain/swelling/stiffness and 10 is the worst pain/swelling/stiffness imaginable.
The Western Ontario McMaster Universities Osteoarthritis Index (WOMAC) (8) was used to evaluate pain, stiffness and physical function of the knee. The pain and stiffness subscales of the WOMAC have scores of 0-20 and 0-8 respectively, with 0 representing no pain or stiffness. […] Adherence to trial medication was recorded. Adverse events, patient withdrawals and concomitant illnesses were recorded in accordance with good clinical practice guidelines.

Series [2] has the same test system. Description: Double blind, randomized study in osteoarthritis of the knee: VAS assessment of pain, stiffness and swelling. The class given is in vivo, human. Particulars: twice-daily for 90 days, VAS scored 0 to 10, baseline vs end of 90 days.
Excerpt: The institutional ethics committee approved the study protocol. Patients were recruited from the orthopaedic outpatient clinic of a tertiary care hospital. Consecutive outpatients of either sex, aged between 40-65 years in ARA functional class I, II or III and radiologically diagnosed to have osteoarthritis of the knee were identified. Clinically pain or discomfort should have been experienced in the affected knee on most days for the previous 3 months. Of these, patients already undergone knee arthroplasty, taken glucosamine in the previous 3 months or any intraarticular injection within previous month, having renal and/or hepatic disease, diabetes mellitus or a disabling co-morbidity were excluded.
as §1, with “Four separate 10 cm visual analogue scales (VAS) were used to measure pain in affected knee at rest, on movement and the patients overall assessment of swelling and morning stiffness.” left out
The Western Ontario McMaster Universities Osteoarthritis Index (WOMAC) (8) was used to evaluate pain, stiffness and physical function of the knee. […] Adherence to trial medication was recorded. Adverse events, patient withdrawals and concomitant illnesses were recorded in accordance with good clinical practice guidelines.
The primary outcome measure was the change in VAS and WOMAC assessment of pain and stiffness in the affected knee. Response to treatment was analysed on an intention to treat basis, and the continuous variables were tested for significance by the standard error of difference in means. Categorical data were expressed as percentages with their 95% confidence intervals (CI). […]

Turning to `N[C@H]1C(O)O[C@H](CO)[C@@H](O)[C@@H]1O.O=S(=O)(O)O` (some centres unmarked) [glucosamine sulphate], in series [1], the “Patients who reported headache” value is 4 (16.0%) patients (%) and the “Patients who reported increase in pain” value is 3 (12.0%) patients (%). Further, in series [2], the “Mean (95% CI) decrease in VAS score for morning stiffness” value is on record as 0.13, the “Mean (95% CI) decrease in VAS score for pain on use” value came out at 0.27 and the “Mean (95% CI) decrease in VAS score for swelling” value was 0.45.

Values taken from patent publication US20080020998A1, “Sustained release compositions for the therapeutic management of pain, inflammation and inflammation-associated disorders and prophylactic/ therapeutic methods thereof” (priority 2006, published 2008).
